≈ marks a conversion by molar mass, not a printed value.
Experiments:
[1] = biological target: T1, DNA repair protein RecN (Escherichia coli) (UniProt P05824); assay: Induction of Escherichia coli K12 MG1655 recN promotor measured at 30 mins interval for 20 hrs by fluorescence assay relative to control; details: Escherichia coli str. K-12 substr. MG1655
T1 sequence (whole entry): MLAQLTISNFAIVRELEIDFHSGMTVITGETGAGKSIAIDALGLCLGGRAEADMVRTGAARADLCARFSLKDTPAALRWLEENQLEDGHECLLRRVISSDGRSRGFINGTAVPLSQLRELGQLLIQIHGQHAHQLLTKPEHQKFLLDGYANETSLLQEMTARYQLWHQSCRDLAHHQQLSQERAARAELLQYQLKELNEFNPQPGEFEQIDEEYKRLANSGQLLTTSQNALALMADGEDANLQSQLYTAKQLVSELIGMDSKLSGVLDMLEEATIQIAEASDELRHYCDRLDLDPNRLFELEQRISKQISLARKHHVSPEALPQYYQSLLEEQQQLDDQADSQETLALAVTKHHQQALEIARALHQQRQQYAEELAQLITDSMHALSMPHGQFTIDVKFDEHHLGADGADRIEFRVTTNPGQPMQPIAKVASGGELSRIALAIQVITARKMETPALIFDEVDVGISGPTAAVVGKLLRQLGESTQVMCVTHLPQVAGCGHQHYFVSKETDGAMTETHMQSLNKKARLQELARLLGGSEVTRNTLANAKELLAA

[2] = biological target: T2, Cell division inhibitor SulA (Escherichia coli K-12) (UniProt P0AFZ5); assay: Induction of Escherichia coli K12 MG1655 sulA promotor measured at 30 mins interval for 20 hrs by fluorescence assay relative to control; details: Escherichia coli str. K-12 substr. MG1655
T2 sequence (whole entry): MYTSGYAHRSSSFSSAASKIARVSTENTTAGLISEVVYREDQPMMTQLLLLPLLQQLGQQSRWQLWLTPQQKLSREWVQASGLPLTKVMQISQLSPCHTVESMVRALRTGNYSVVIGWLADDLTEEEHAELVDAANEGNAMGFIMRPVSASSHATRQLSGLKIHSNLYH

[3] = biological target: T3, LexA repressor (Escherichia coli) (UniProt P0A7C2); assay: Induction of Escherichia coli K12 MG1655 lexA promotor measured at 30 mins interval for 20 hrs by fluorescence assay relative to control; details: Escherichia coli str. K-12 substr. MG1655
T3 sequence (whole entry): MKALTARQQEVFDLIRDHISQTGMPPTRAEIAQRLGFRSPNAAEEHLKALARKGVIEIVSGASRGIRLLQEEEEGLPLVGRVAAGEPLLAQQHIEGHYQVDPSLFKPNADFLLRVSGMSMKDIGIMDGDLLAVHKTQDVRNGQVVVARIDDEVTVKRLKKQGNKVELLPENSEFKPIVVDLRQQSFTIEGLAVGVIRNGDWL

[4] = biological target: T4, Protein RecA (Escherichia coli K-12) (UniProt P0A7G6); assay: Induction of Escherichia coli K12 MG1655 recA promotor measured at 30 mins interval for 20 hrs by fluorescence assay relative to control; details: Escherichia coli str. K-12 substr. MG1655
T4 sequence (whole entry): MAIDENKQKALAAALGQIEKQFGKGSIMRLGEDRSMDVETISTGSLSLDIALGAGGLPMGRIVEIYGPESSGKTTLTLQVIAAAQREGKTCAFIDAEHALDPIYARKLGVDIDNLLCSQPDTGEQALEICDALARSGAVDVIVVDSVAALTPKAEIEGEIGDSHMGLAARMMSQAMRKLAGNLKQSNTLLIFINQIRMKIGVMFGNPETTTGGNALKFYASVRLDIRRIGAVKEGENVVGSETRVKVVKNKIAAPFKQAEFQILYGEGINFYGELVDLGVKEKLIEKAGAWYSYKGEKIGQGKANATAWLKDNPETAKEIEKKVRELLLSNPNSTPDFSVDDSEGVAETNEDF

[5] = Cytotoxicity against human WI38 cells assessed as cell viability at 20 uM measured after 24 hrs by MTT assay relative to control; format: cell-based, WI-38; details: read-out: Activity
[6] = Selectivity ratio of cytotoxicity against human WI38 cells to MIC for methicillin sensitive Staphylococcus aureus NCTC 6571; format: toxicity, cell-based
[7] = Selectivity ratio of cytotoxicity against human WI38 cells to MIC for Acinetobacter baumannii ATCC 17978; format: toxicity, cell-based
[8] = Selectivity ratio of cytotoxicity against human WI38 cells to MIC for multidrug-resistant Acinetobacter baumannii AYE; format: toxicity, cell-based
[9] = test system: Acinetobacter baumannii; assay: Antimicrobial activity against Acinetobacter baumannii ATCC 17978 by microdilution broth method; format: functional
[10] = test system: DNA; assay: Stabilization of 5'-FAM-TAT-ATA-TAG-ATA-TTT-TTT-TAT-CTA-TAT-ATA-3'-TAMRA DNA (unknown origin) assessed as reduction in change in melting temperature at 1:1 to 5:1 ligand to DNA ratio measured after 3 hrs by FRET-based assay relative to control; format: ADME, nucleic-acid assay
[11] = Selectivity ratio of cytotoxicity against human WI38 cells to MIC for Pseudomonas aeruginosa PAO1; format: toxicity, cell-based
[12] = Selectivity ratio of cytotoxicity against human WI38 cells to MIC for multidrug-resistant Pseudomonas aeruginosa NCTC 13437; format: toxicity, cell-based
[13] = test system: Staphylococcus aureus; assay: Antibacterial activity against methicillin sensitive Staphylococcus aureus NCTC 6571 by microdilution broth method; format: functional
[14] = Selectivity ratio of cytotoxicity against human WI38 cells to MIC for vancomycin resistant Enterococcus faecalis NCTC 12201; format: toxicity, cell-based
[15] = Selectivity ratio of cytotoxicity against human WI38 cells to MIC for methicillin resistant Staphylococcus aureus NCTC 13277; format: toxicity, cell-based
[16] = test system: Staphylococcus aureus; assay: Antibacterial activity against methicillin resistant Staphylococcus aureus NCTC 13616 by microdilution broth method; format: functional
[17] = Selectivity ratio of cytotoxicity against human WI38 cells to MIC for Klebsiella pneumoniae M6; format: toxicity, cell-based
[18] = Selectivity ratio of cytotoxicity against human WI38 cells to MIC for methicillin resistant Staphylococcus aureus NCTC 13616; format: toxicity, cell-based
[19] = test system: DNA; assay: Stabilization of 5'-FAM-TAT-AGA-TAT-AGA-TAT-TTT-ATA-TCT-ATA-TCT-ATA-3'-TAMRA DNA (unknown origin) assessed as reduction in change in melting temperature at 1:1 to 5:1 ligand to DNA ratio measured after 3 hrs by FRET-based assay relative to control; format: ADME, nucleic-acid assay
[20] = test system: Staphylococcus aureus; assay: Antibacterial activity against methicillin resistant Staphylococcus aureus NCTC 13277 by microdilution broth method; format: functional
[21] = Selectivity ratio of cytotoxicity against human WI38 cells to MIC for vancomycin sensitive Enterococcus faecalis NCTC 775; format: toxicity, cell-based
[22] = test system: Enterococcus faecium; assay: Antibacterial activity against vancomycin resistant Enterococcus faecium NCTC 12204 by microdilution broth method; format: functional
[23] = Selectivity ratio of cytotoxicity against human WI38 cells to MIC for vancomycin resistant Enterococcus faecium NCTC 12204; format: toxicity, cell-based
[24] = Selectivity ratio of cytotoxicity against human WI38 cells to MIC for multidrug-resistant Klebsiella pneumoniae NCTC 13368; format: toxicity, cell-based
[25] = test system: Enterococcus faecalis; assay: Antibacterial activity against vancomycin resistant Enterococcus faecalis NCTC 12201 by microdilution broth method; format: functional
[26] = test system: Acinetobacter baumannii; assay: Antimicrobial activity against multidrug-resistant Acinetobacter baumannii AYE by microdilution broth method; format: functional
[27] = test system: Enterococcus faecalis; assay: Antibacterial activity against vancomycin sensitive Enterococcus faecalis NCTC 775 by microdilution broth method; format: functional
[28] = test system: Pseudomonas aeruginosa; assay: Antimicrobial activity against Pseudomonas aeruginosa PAO1 by microdilution broth method; format: functional

CO[C@@H]1[C@@H](OC(N)=O)[C@@H](O)[C@H](Oc2ccc3c(O)c(NC(=O)c4ccc(O)c(CC=C(C)C)c4)c(=O)oc3c2C)OC1(C)C
fold change (FC) [1]: 14 to 32 | fold change (FC) [2]: 17 to 41 | fold change (FC) [3]: 5 to 13 | fold change (FC) [4]: 20 to 35

COc1cc2c(cc1OCCCC(=O)Nc1cc(C(=O)Nc3ccc4sc(C(=O)N5CCCCC5)cc4c3)n(C)c1)N=C[C@@H]1CCCN1C2=O
viability at 24 h, 20 µM [5]: > 85% | selectivity ratio [6]: 100 | selectivity ratio [7]: 10 | selectivity ratio [8]: 10 | MIC [9]: 8 µg/mL (≈ 11.5 µM) | fold change (FC) [10]: 3 to 4 | selectivity ratio [11]: 10 | selectivity ratio [12]: 10 | MIC [13]: ≤ 0.125 µg/mL | selectivity ratio [14]: 100 | selectivity ratio [15]: 100 | MIC [16]: 0.5 µg/mL (≈ 0.718 µM) | selectivity ratio [17]: 10 | selectivity ratio [18]: 100 | fold change (FC) [19]: 3 to 4 | MIC [20]: 1 µg/mL (≈ 1.44 µM) | selectivity ratio [21]: 100 | MIC [22]: ≤ 0.125 µg/mL | selectivity ratio [23]: 100 | selectivity ratio [24]: 10 | MIC [25]: ≤ 0.125 µg/mL

COC(=O)c1cc(NC(=O)c2cc3cc(NC(=O)c4cc(NC(=O)CCCOc5cc6c(cc5OC)C(=O)N5CCC[C@H]5C=N6)cn4C)ccc3s2)cn1C
viability at 24 h, 20 µM [5]: 32% | MIC [9]: 64 µg/mL (≈ 83.6 µM) | fold change (FC) [10]: 3 to 4 | MIC [26]: 64 µg/mL (≈ 83.6 µM) | MIC [13]: ≤ 0.125 µg/mL | MIC [16]: 0.5 µg/mL (≈ 0.653 µM) | fold change (FC) [19]: 3 to 4 | MIC [20]: 1 µg/mL (≈ 1.31 µM) | MIC [22]: ≤ 0.125 µg/mL | MIC [27]: ≤ 0.125 µg/mL | MIC [25]: ≤ 0.125 µg/mL | MIC [28]: > 128 µg/mL

COc1cc2c(cc1OCCCC(=O)Nc1cc(C(=O)Nc3ccc4oc(C(=O)N5CCCCC5)cc4c3)n(C)c1)N=C[C@@H]1CCCN1C2=O
viability at 24 h, 20 µM [5]: > 85% | selectivity ratio [6]: 100 | selectivity ratio [7]: 10 | selectivity ratio [8]: 10 | MIC [9]: 2 µg/mL (≈ 2.94 µM) | fold change (FC) [10]: 3 to 4 | selectivity ratio [11]: 10 | selectivity ratio [12]: 10 | MIC [13]: ≤ 0.125 µg/mL | selectivity ratio [14]: 100 | selectivity ratio [15]: 100 | MIC [16]: 0.25 µg/mL (≈ 0.367 µM) | selectivity ratio [17]: 10 | selectivity ratio [18]: 100 | fold change (FC) [19]: 3 to 4 | MIC [20]: 0.5 µg/mL (≈ 0.734 µM) | selectivity ratio [21]: 100 | MIC [22]: ≤ 0.125 µg/mL | selectivity ratio [23]: 100 | selectivity ratio [24]: 10 | MIC [25]: ≤ 0.125 µg/mL

CCN(CC)C(=O)c1cc2cc(NC(=O)c3cc(NC(=O)CCCOc4cc5c(cc4OC)C(=O)N4CCC[C@H]4C=N5)cn3C)ccc2s1
viability at 24 h, 20 µM [5]: > 85% | selectivity ratio [6]: 100 | selectivity ratio [7]: 10 | selectivity ratio [8]: 10 | MIC [9]: 2 µg/mL (≈ 2.92 µM) | fold change (FC) [10]: 3 to 4 | selectivity ratio [11]: 10 | selectivity ratio [12]: 10 | MIC [26]: 2 µg/mL (≈ 2.92 µM) | selectivity ratio [14]: 100 | selectivity ratio [15]: 100 | MIC [16]: 1 µg/mL (≈ 1.46 µM) | selectivity ratio [17]: 10 | selectivity ratio [18]: 100 | fold change (FC) [19]: 3 to 4 | MIC [20]: 1 µg/mL (≈ 1.46 µM) | selectivity ratio [21]: 100 | MIC [22]: 1 µg/mL (≈ 1.46 µM) | selectivity ratio [23]: 100 | selectivity ratio [24]: 10 | MIC [25]: 0.5 µg/mL (≈ 0.73 µM)

COc1cc2c(cc1OCCCC(=O)Nc1cc(C(=O)Nc3ccc4sc(C(=O)N5CCOCC5)cc4c3)n(C)c1)N=C[C@@H]1CCCN1C2=O
viability at 24 h, 20 µM [5]: > 85% | selectivity ratio [6]: 100 | selectivity ratio [7]: 10 | selectivity ratio [8]: 10 | MIC [9]: 8 µg/mL (≈ 11.4 µM) | fold change (FC) [10]: 3 to 4 | selectivity ratio [11]: 10 | selectivity ratio [12]: 10 | MIC [13]: ≤ 0.125 µg/mL | selectivity ratio [14]: 100 | selectivity ratio [15]: 100 | MIC [16]: ≤ 0.125 µg/mL | selectivity ratio [17]: 10 | selectivity ratio [18]: 100 | fold change (FC) [19]: 3 to 4 | MIC [20]: 0.5 µg/mL (≈ 0.716 µM) | selectivity ratio [21]: 100 | MIC [22]: ≤ 0.125 µg/mL | MIC [27]: ≤ 0.125 µg/mL | selectivity ratio [23]: 100 | selectivity ratio [24]: 10 | MIC [25]: ≤ 0.125 µg/mL | MIC [28]: 64 µg/mL (≈ 91.6 µM)
